Laboratory results: BigSolDB 2.1

Cc1cc(C)[nH]n1
solubility (mole fraction)
Conditions | in acetone | in acetonitrile | in ethanol | in ethyl acetate | in isopropanol | in methanol | in n-butanol | in n-propanol | in toluene
283.15 K | 0.0625 | 0.0276 | 0.12 | 0.0508 | 0.115 | 0.107 | 0.133 | 0.123 | 0.0339
285.65 K | 0.0691 | 0.0312 | 0.127 | 0.0578 | 0.121 | 0.112 | 0.14 | 0.13 | 0.0382
288.15 K | 0.0757 | 0.0359 | 0.133 | 0.0663 | 0.128 | 0.118 | 0.149 | 0.137 | 0.045
290.65 K | 0.0838 | 0.0408 | 0.14 | 0.077 | 0.134 | 0.123 | 0.158 | 0.145 | 0.0517
293.15 K | 0.0935 | 0.0455 | 0.148 | 0.0881 | 0.142 | 0.131 | 0.166 | 0.152 | 0.0593
295.65 K | 0.105 | 0.0508 | 0.155 | 0.1 | 0.149 | 0.137 | 0.176 | 0.16 | 0.0677
298.15 K | 0.116 | 0.0568 | 0.163 | 0.113 | 0.157 | 0.143 | 0.187 | 0.167 | 0.0769
300.65 K | 0.129 | 0.0635 | 0.171 | 0.128 | 0.164 | 0.15 | 0.199 | 0.175 | 0.0863
303.15 K | 0.143 | 0.0722 | 0.179 | 0.144 | 0.171 | 0.158 | 0.211 | 0.184 | 0.0979
305.65 K | 0.16 | 0.0806 | 0.187 | 0.161 | 0.18 | 0.165 | 0.224 | 0.194 | 0.114
308.15 K | 0.175 | 0.0916 | 0.196 | 0.18 | 0.19 | 0.173 | 0.237 | 0.203 | 0.133
310.65 K | 0.194 | 0.102 | 0.205 | 0.199 | 0.199 | 0.18 | 0.251 | 0.213 | 0.151
313.15 K | 0.213 | 0.116 | 0.217 | 0.223 | 0.211 | 0.19 | 0.265 | 0.226 | 0.171
